Experimental findings from ChEMBL document CHEMBL1153748 (J Med Chem, 2010) are described below.

SMILES strings stand for the structures. Where only a bound is given, the exact number is not on record here.

The target in test [1] is T1, Peroxisome proliferator-activated receptor delta (Homo sapiens, UniProt Q03181).
T1 sequence (Q03181 whole entry): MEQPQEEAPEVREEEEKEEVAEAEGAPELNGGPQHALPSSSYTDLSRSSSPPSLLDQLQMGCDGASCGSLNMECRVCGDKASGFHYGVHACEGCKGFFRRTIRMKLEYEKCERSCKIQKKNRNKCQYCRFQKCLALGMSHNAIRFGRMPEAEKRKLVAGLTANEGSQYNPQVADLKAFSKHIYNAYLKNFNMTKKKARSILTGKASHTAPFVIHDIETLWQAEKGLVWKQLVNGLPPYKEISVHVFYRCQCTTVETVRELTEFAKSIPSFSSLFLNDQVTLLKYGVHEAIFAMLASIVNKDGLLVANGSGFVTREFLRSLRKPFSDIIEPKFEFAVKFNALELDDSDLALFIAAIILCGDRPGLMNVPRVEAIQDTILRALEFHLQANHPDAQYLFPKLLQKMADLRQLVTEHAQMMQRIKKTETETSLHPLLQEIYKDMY

Test [2] addresses T2, Peroxisome proliferator-activated receptor alpha (Homo sapiens, UniProt Q07869).
T2 sequence (Q07869 whole entry): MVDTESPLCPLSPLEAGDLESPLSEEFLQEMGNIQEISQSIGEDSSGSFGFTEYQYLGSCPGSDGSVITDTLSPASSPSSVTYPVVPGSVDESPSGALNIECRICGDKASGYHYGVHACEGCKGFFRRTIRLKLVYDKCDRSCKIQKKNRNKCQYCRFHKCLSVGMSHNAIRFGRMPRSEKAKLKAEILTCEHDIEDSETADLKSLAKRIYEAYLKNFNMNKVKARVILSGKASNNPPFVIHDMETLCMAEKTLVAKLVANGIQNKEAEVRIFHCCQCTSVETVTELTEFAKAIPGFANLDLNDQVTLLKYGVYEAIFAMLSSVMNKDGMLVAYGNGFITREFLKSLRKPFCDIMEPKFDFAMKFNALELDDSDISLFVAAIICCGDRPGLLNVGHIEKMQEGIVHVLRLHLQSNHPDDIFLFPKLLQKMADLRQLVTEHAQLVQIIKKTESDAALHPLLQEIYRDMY
In words: Agonist activity at human PPARalpha ligand binding domain expressed in human 293T cells co-transfected with Gal4-DBD by luciferase transactivation assay. The format is cell-based. The conditions noted are these: read-out: EC50.

The target of test [3] is T3, Peroxisome proliferator-activated receptor gamma (Homo sapiens, UniProt P37231).
T3 sequence (P37231 whole entry): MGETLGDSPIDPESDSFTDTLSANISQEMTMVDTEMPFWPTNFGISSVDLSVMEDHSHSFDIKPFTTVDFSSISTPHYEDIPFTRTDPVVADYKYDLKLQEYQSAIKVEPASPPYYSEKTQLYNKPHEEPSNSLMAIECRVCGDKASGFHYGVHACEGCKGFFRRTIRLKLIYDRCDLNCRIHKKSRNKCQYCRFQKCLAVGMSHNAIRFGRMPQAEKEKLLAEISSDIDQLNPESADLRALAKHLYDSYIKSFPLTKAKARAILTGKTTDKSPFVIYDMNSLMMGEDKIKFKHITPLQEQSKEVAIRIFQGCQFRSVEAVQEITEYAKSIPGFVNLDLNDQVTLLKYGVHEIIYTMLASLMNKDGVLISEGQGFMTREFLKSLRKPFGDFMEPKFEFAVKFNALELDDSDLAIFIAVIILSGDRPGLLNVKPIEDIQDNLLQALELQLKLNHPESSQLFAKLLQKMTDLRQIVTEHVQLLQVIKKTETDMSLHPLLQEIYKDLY
In kind it is cell-based, 293T. The following applies: read-out: EC50.

A word on the EC50: it is the concentration giving half of the maximal effect. As for `CCCCOc1ccc(-c2nc(COc3ccc(OCC(=O)O)c(C)c3)sc2-c2ccc(OC(F)(F)F)cc2)cc1`, the figures for the EC50 in test [1], in test [2] and in test [3] were 0.026 µM, above 10 µM and above 10 µM, respectively.

For `COc1cccc(-c2nc(COc3ccc(OCC(=O)O)c(C)c3)sc2-c2ccc(OC(F)(F)F)cc2)c1`, the results for the EC50 in test [1], in test [2] and in test [3] were 0.12 µM, above 10 µM and above 10 µM, respectively.

As for `Cc1cc(OCc2nc(-c3ccc(N4CCOCC4)cc3)c(-c3ccc(OC(F)(F)F)cc3)s2)ccc1OCC(=O)O`, the EC50 in test [1] is 0.045 µM; in test [2], above 10 µM; in test [3], above 10 µM.

Consider `Cc1cc(OCc2nc(-c3ccc(C(F)(F)F)cc3)c(C)s2)ccc1OCC(=O)O`, for which the EC50 in test [1] is 2.4 µM; in test [2], above 10 µM; in test [3], above 10 µM.

With `COc1ccc(-c2nc(Sc3ccc(OCC(=O)O)c(C)c3)sc2-c2ccc(OC)cc2)cc1`, the EC50 in test [1] was 1.41 µM; in test [2] it was above 10 µM; in test [3], above 10 µM.

Regarding `COc1ccc(-c2nc(COc3ccc(OCC(=O)O)c(C)c3)sc2-c2cccc(C(F)(F)F)c2)cc1`, the EC50 was 0.07 µM in test [1], above 10 µM in test [2] and above 10 µM in test [3].

For the molecule `Cc1cc(OCc2nc(-c3cncnc3)c(-c3ccc(OC(F)(F)F)cc3)o2)ccc1OCC(=O)O`, the EC50 is 0.055 µM in test [1], above 10 µM in test [2] and above 10 µM in test [3].

`Cc1ccc(-c2sc(COc3ccc(OCC(=O)O)c(C)c3)nc2-c2cccnc2)cc1`: the EC50 was 0.19 µM in test [1], above 10 µM in test [2] and above 10 µM in test [3].

For the molecule `COc1ccc(-c2nc(COc3ccc(OCC(=O)O)c(C)c3)sc2-c2ccc(Cl)cc2)cc1`, the figures for the EC50 in test [1], in test [2] and in test [3] were 0.06 µM, above 10 µM and above 10 µM, respectively.

Consider `COc1ccc(-c2nc(SCCCOc3ccc(CC(=O)O)cc3Cl)sc2-c2ccc(OC)cc2)cc1`, for which, in test [3], the EC50 came out at 4.61 µM.

As to `Cc1cc(OCc2nc(-c3ccc(Cl)cc3)c(-c3ccccc3)s2)ccc1OCC(=O)O`, the values for the EC50 in test [1], in test [2] and in test [3] were 5.9 µM, above 10 µM and above 10 µM, respectively.

Turning to `COc1ccc(-c2nc(COc3ccc(OCC(=O)O)c(C)c3)oc2-c2ccc(OC)cc2)cc1`, the EC50 in test [1] is 0.12 µM; in test [2], above 10 µM; in test [3], above 10 µM.

`COc1ccc(-c2nc(COc3ccc(OCC(=O)O)c(C)c3)sc2-c2ccc(OC(F)(F)F)cc2)cc1F`: the EC50 in test [1] is 0.056 µM; in test [2], above 10 µM; in test [3] it was above 10 µM.

As for `Cc1cc(OCc2nc(-c3ccc(-c4ccccc4)cc3)c(-c3ccc(OC(F)(F)F)cc3)s2)ccc1OCC(=O)O`, the values for the EC50 in test [1], in test [2] and in test [3] were 0.16 µM, above 10 µM and above 10 µM, respectively.

Turning to `Cc1cc(OCc2nc(-c3ccc(N4CCCC4)cc3)c(-c3ccc(OC(F)(F)F)cc3)s2)ccc1OCC(=O)O`, the EC50 in test [1] was 0.41 µM; in test [2] it was above 10 µM; in test [3], above 10 µM.

Turning to `Cc1cc(OCc2nc(-c3ccc(Cl)cc3)c(-c3ccc(Cl)cc3)s2)ccc1OCC(=O)O`, the EC50 in test [1] is 0.51 µM; in test [2], above 10 µM; in test [3] it was above 10 µM.

On to `COc1ccc(-c2nc(COc3ccc(OCC(=O)O)c(C)c3)oc2-c2ccc(Cl)c(Cl)c2)cc1`, for which the EC50 in test [1] was 0.07 µM; in test [2] it was above 10 µM; in test [3] it was above 10 µM.

On to `COc1ccc(-c2nc(COc3ccc(OCC(=O)O)c(C)c3)sc2-c2ccc(SC(F)(F)F)cc2)cc1`, for which the EC50 in test [1] was 0.15 µM; in test [2], above 10 µM; in test [3] it was above 10 µM.

As to `COc1ccc(-c2nc(COc3ccc(OCC(=O)O)c(C)c3)oc2-c2ccc(C(F)(F)F)cc2)cc1`, the EC50 was 0.01 µM in test [1], above 10 µM in test [2] and above 10 µM in test [3].

Turning to `COc1ccc(-c2nc(COc3ccc(OCC(=O)O)cc3)sc2-c2ccc(C(F)(F)F)cc2)cc1`, the EC50 in test [1] is 0.93 µM; in test [2] it was above 10 µM; in test [3] it was above 10 µM.

On to `COc1ccc(-c2nc(COc3ccc(OCC(=O)O)c(C)c3)sc2-c2ccccc2)cc1`, for which the half-maximal effective concentration (EC50) in test [1] is 0.19 µM; in test [2] it was above 10 µM; in test [3], above 10 µM.

Turning to `Cc1cc(OCc2nc(-c3ccc(NS(C)(=O)=O)cc3)c(-c3ccc(OC(F)(F)F)cc3)s2)ccc1OCC(=O)O`, the EC50 in test [1] was 0.775 µM; in test [2], above 10 µM; in test [3], above 10 µM.

Turning to `CCOc1ccc(-c2nc(COc3ccc(OCC(=O)O)c(C)c3)sc2-c2ccc(OC(F)(F)F)cc2)cc1`, the EC50 in test [1] was 0.032 µM; in test [2], above 10 µM; in test [3], above 10 µM.

Turning to `Cc1cc(OCc2cc(-c3ccc(C(F)(F)F)cc3)cc(-c3ccc(C(F)(F)F)cc3)c2)ccc1OCC(=O)O`, the half-maximal effective concentration (EC50) in test [2] and in test [3] was above 10 µM each time.

Turning to `Cc1cc(OCc2nc(-c3ccccc3)c(-c3ccccc3)s2)ccc1OCC(=O)O`, the EC50 in test [1], in test [2] and in test [3] was above 10 µM throughout.

In the case of `CCCc1cc(OCc2nc(-c3ccc(OC)cc3)c(-c3ccc(C(F)(F)F)cc3)s2)ccc1OCC(=O)O`, the figures for the EC50 in test [1], in test [2] and in test [3] were 0.02 µM, above 10 µM and above 10 µM, respectively.

As to `COc1ccc(-c2nc(COc3ccc(OCC(=O)O)c(C)c3)sc2-c2cccc3ccccc23)cc1`, the EC50 in test [1], in test [2] and in test [3] was above 10 µM throughout.

In the case of `COc1ccc(-c2nc(SCc3ccc(OCC(=O)O)c(C)c3)sc2-c2ccc(OC)cc2)cc1`, the EC50 was 5.67 µM in test [1], above 10 µM in test [2] and above 10 µM in test [3].

Regarding `COc1ccc(-c2nc(COc3ccccc3OCC(=O)O)sc2-c2ccc(C(F)(F)F)cc2)cc1`, the EC50 in test [1], in test [2] and in test [3] was above 10 µM each time.

Turning to `Cc1cc(OCc2nc(-c3ccccc3)c(-c3ccc(Cl)cc3)s2)ccc1OCC(=O)O`, the EC50 was 0.13 µM in test [1], above 10 µM in test [2] and above 10 µM in test [3].

For the molecule `COc1ccc(-c2nc(COc3ccc4c(ccn4CC(=O)O)c3)sc2-c2ccc(C(F)(F)F)cc2)cc1`, the EC50 in test [1] was 0.34 µM; in test [2], above 10 µM; in test [3], above 10 µM.

As to `Cc1cc(OCc2nc(-c3ccc4[nH]c(=O)oc4c3)c(-c3ccc(OC(F)(F)F)cc3)s2)ccc1OCC(=O)O`, the EC50 is 0.544 µM in test [1], above 10 µM in test [2] and above 10 µM in test [3].

For `COc1ccc(-c2nc(SCCCCOc3ccc(CC(=O)O)cc3Cl)sc2-c2ccc(OC)cc2)cc1`, the EC50 in test [3] came out at 2.56 µM.

As to `COc1ccc(-c2nc(SCCOc3ccc(CC(=O)O)cc3Cl)sc2-c2ccc(OC)cc2)cc1`, the EC50 in test [3] stood at 5.87 µM.

As for `COc1ccc(-c2nc(Sc3ccc(CC(=O)O)cc3Cl)sc2-c2ccc(OC)cc2)cc1`, in test [3], the EC50 was above 10 µM.

In the case of `CCCc1c(OCCCSc2ccc(CC(=O)O)cc2Cl)ccc2c(CC)noc12` [L-165461], the EC50 in test [2] worked out at 1.3 µM.

In the case of `COc1ccc(-c2nc(COc3ccc(CC(=O)O)cc3Cl)sc2-c2ccc(OC)cc2)cc1`, in test [3], the EC50 was above 10 µM.

In the case of `COc1ccc(-c2nc(SCc3ccc(CC(=O)O)cc3Cl)sc2-c2ccc(OC)cc2)cc1`, the EC50 in test [3] is above 10 µM.
